Measured values reported in patent US20220273759A1, “PHARMACEUTICAL ASSOCIATION FOR CONVERTING A NEOPLASTIC CELL INTO A NON-NEOPLASTIC CELL AND USES THEREOF” (HISTIDE AG, priority 2015, published 2022).

How the values were obtained:
Format in all cases: cell-based
[1] = tested on: human adenocarcinoma cells; assay: Recoding via quantification of pRB and P53, adenocarcinoma cells; conditions: Table 6, peptide in association with PET
Experimental: (§1) The cells were first fixed for 20 min with 4% paraformaldehyde/PBS at 4° C. After fixation, the cells were permeabilized in PBS containing 1% Triton X-100 for 15 min. Protein immunofluorescent visualization was performed by first treating the cells with 1% (v/v) specific monoclonal antibodies for 1 hour at 37° C. Then the samples were incubated with Alexa Fluor® 568 or 647 (F(ab′)2 fragment of IgG(H+L)) during 30 min at room temperature. The cell nuclei were counterstained in 20 ng/mL DAPI for 10 min at room temperature.
For this type of quantification the freeware image analysis ImageJ® software was used. The raw image was first converted to an 8-bit file, and then the unsharp mask feature was used (settings 1:0.2) to remove the image background (rolling ball radius 10). After smoothing, the resulting image, which appears similar to the original photomicrograph but with minimal background, was then converted to a binary image by setting a threshold. Threshold values were determined empirically by selecting a setting, which gave the most accurate binary image for a subset of randomly selected photomicrographs. The cell area was determined by manual delineation on raw fluorescent images. Total contact area and mean contact area per cell were calculated by “analyse particules” in ImageJ®. A minimum of 50 cells per condition were analyzed. […]

[2] = tested on: Smad1/5/8 signaling pathway; assay: Growth factor receptor activation: western blot quantification of phospho-smad1/5/8; conditions: Table 4; human osteosarcoma cells MG63; quantification of western blots of phospho-smad1/5/8
Experimental: After 24 hours of culture, cells were permeabilized (10% SDS, 25 mM NaCl, 10 nM pepstatin and 10 nM leupeptin in distilled water and loading buffer), boiled for 10 minutes and resolved by reducing PAGE (Invitrogen). Proteins were transferred onto nitrocellulose, blocked, and labeled with HRP-conjugated antibodies (Invitrogen). Integrin αv, α5, +3, α4, β1, β3, β5 and […] were blotted by treating the nitrocellulose with monoclonal anti-integrin (extracellular domain) αv, α5, +3, α4, β1, β3, β5 and β6 antibodies (Santa Cruz Biotechnology). Phosphor-Smad1/5/8 was blotted by treating the nitrocellulose with monoclonal anti-p-Smad1/5/8 (Santa Cruz Biotechnology). For all of the experiments the western blot was performed in triplicate, along with an additional blot for actin and coomassie blue staining to ensure constant protein load among samples.

[3] = tested on: human osteosarcoma cells, MG63; assay: Tumor cell recoding via quantification of pRB and p53 (immunofluorescence staining, ImageJ); conditions: MG63, quantification of pRB
Experimental: as §1
For this type of quantification the freeware image analysis ImageJ® software was used. The raw image was first converted to an 8-bit file, and then the unsharp mask feature was used (settings 1:0.2) to remove the image background (rolling ball radius 10). After smoothing, the resulting image, which appears similar to the original photomicrograph but with minimal background, was then converted to a binary image by setting a threshold. Threshold values were determined empirically by selecting a setting, which gave the most accurate binary image for a subset of randomly selected photomicrographs. The cell area was determined by manual delineation on raw fluorescent images. Total contact area and mean contact area per cell were calculated by “analyse particules” in ImageJ®. A minimum of 50 cells per condition were analyzed.
Neoplastic cells (in this example osteosarcoma cells) were cultured on pharmaceutical associations comprising PET as a bioactive carrier and one of GFR-binding compounds of SEQ ID NO: 11 to 14, 24 to 26 and 51 to 63. A rapid (24 hours) decrease of the tumor markers was observed (FIG. 7). The adhesion checkpoint then activates the tumor suppressor proteins p53 and pRB. […]

Sequence | P53 (%) [1] [%] | pRB (%) [1] [%] | p-Smad1/5/8 (%) [2] [%] | pRB (%) ([3]; Table 4) | pRB (%) ([3]; Table 5)
STPPTSSTPTKMSNITTQIM (Non-cyclic GFR-binding peptide) [SEQ ID NO: 233] | 43 | 23 |  |  | 
RVPSTSSAPTKMKPLSMLYV (Non-cyclic GFR-binding peptide) [SEQ ID NO: 227] | 32 | 14 |  |  | 
KIPKASSTQVRLRSVKTAKV (Non-cyclic GFR-binding peptide) [SEQ ID NO: 236] | 37 | 25 |  |  | 
AASKASSVPEKMRPVQTRKI (Non-cyclic GFR-binding peptide) [SEQ ID NO: 237] | 42 | 22 |  |  | 
STPPTSSVSQKMKPLSILYV (Non-cyclic GFR-binding peptide) [SEQ ID NO: 228] | 26 | 18 |  |  | 
RVPSTSSVPAEESNITVQIM (Non-cyclic GFR-binding peptide) [SEQ ID NO: 234] | 45 | 22 |  |  | 
GIPEPSSVPQKMEPLPIVYY (Non-cyclic GFR-binding peptide) [SEQ ID NO: 75] |  |  | 51 | 10 | 10
RNVQSRPTQVQLKPLSMLYV (Non-cyclic GFR-binding peptide) [SEQ ID NO: 73] |  |  | 48 | 16 | 16
GIPEPSSTPTKMSPINMLYF (Non-cyclic GFR-binding peptide) [SEQ ID NO: 94] |  |  | 39 | 9 | 9
TQVKMRPVQVRKI (Non-cyclic GFR-binding peptide) [SEQ ID NO: 92] |  |  | 44 | 8 | 8
SIPKASSVPQELEPLPIVYY (Non-cyclic GFR-binding peptide) [SEQ ID NO: 76] |  |  | 54 | 8 | 8
KVGKASSVPQKLEPLPIVYY (Non-cyclic GFR-binding peptide) [SEQ ID NO: 84] |  |  | 33 | 9 | 9
ASASPSSVSQDLSSLSILFF (Non-cyclic GFR-binding peptide) [SEQ ID NO: 68] |  |  | 40 | 14 | 14
RVPSTSSAPTKTSATSVLYY (Non-cyclic GFR-binding peptide) [SEQ ID NO: 81] |  |  | 34 | 17 | 17
KVGKASSVPTKLEPISILYL (Non-cyclic GFR-binding peptide) [SEQ ID NO: 71] |  |  | 66 | 17 | 17
GIPEPSSAPVGQEPLPMVYY (Non-cyclic GFR-binding peptide) [SEQ ID NO: 230] | 30 | 19 |  |  | 
HVPKPSSAPTKLEPISILYL (Non-cyclic GFR-binding peptide) [SEQ ID NO: 100] |  |  | 75 | 19 | 19
YVPKPSSAPTKLNAISVLYF (Non-cyclic GFR-binding peptide) [SEQ ID NO: 99] |  |  | 66 | 21 | 21
GIPEPSSAPVEEEPLTTLYY (Non-cyclic GFR-binding peptide) [SEQ ID NO: 232] | 21 | 13 |  |  | 
RNVQSRPTQVQLSPISILFI (Non-cyclic GFR-binding peptide) [SEQ ID NO: 98] |  |  | 34 | 17 | 17
VVPKPSSAPTQLEPISILYL (Non-cyclic GFR-binding peptide) [SEQ ID NO: 69] |  |  | 39 | 20 | 20
YVPKPSSTPTKLSPINMLYF (Non-cyclic GFR-binding peptide) [SEQ ID NO: 66] |  |  | 38 | 8 | 8

Sequence | P53 (%) [1] [%] | pRB (%) [1] [%] | p-Smad1/5/8 (%) [2] [%] | pRB (%) ([3]; Table 4) | pRB (%) ([3]; Table 5)
VSQDLRSVKVAKV (Non-cyclic GFR-binding peptide) [SEQ ID NO: 89] |  |  | 36 | 17 | 17
ASAAPSSVPQALSSLSILFF (Non-cyclic GFR-binding peptide) [SEQ ID NO: 67] |  |  | 38 | 15 | 15
NDEGLESVPTEESSLSILFF (Non-cyclic GFR-binding peptide) [SEQ ID NO: 80] |  |  | 27 | 9 | 9
KIPKASSVPQELEPLPIVYY (Non-cyclic GFR-binding peptide) [SEQ ID NO: 74] |  |  | 44 | 9 | 9
KIPKASSVPTELSPISVLYK (Non-cyclic GFR-binding peptide) [SEQ ID NO: 87] |  |  | 32 | 21 | 21
NDEGLESVPTEESAISMLYL (Non-cyclic GFR-binding peptide) [SEQ ID NO: 96] |  |  | 78 | 22 | 22
KIPKASSTPTELSPINMLYF (Non-cyclic GFR-binding peptide) [SEQ ID NO: 93] |  |  | 47 | 7 | 7
AASKASSVPQRLRSVKVAKV (Non-cyclic GFR-binding peptide) [SEQ ID NO: 235] | 40 | 26 |  |  | 
KIPKASSVPTKMKPLSVLYV (Non-cyclic GFR-binding peptide) [SEQ ID NO: 226] | 31 | 16 |  |  | 
GIPEPSSAPVDMRPVQIRKI (Non-cyclic GFR-binding peptide) [SEQ ID NO: 238] | 40 | 23 |  |  | 
AASKASSSRVKMSPINVLYF (Non-cyclic GFR-binding peptide) [SEQ ID NO: 225] | 25 | 12 |  |  | 
TKPTSTPTKLSPINMLYF (Non-cyclic GFR-binding peptide) [SEQ ID NO: 65] |  |  | 36 | 10 | 10
ASASPSSVSQDLEPLTILYY (Non-cyclic GFR-binding peptide) [SEQ ID NO: 78] |  |  | 52 | 18 | 18
ASASPSSVPQDLRSVKVAKV (Non-cyclic GFR-binding peptide) [SEQ ID NO: 90] |  |  | 56 | 9 | 9
RVPSTSSVPEKMEPLTMLYY (Non-cyclic GFR-binding peptide) [SEQ ID NO: 231] | 22 | 18 |  |  | 
SSVKSQPSRVHHSPISILFI (Non-cyclic GFR-binding peptide) [SEQ ID NO: 97] |  |  | 39 | 14 | 14
SIPKASSTPTELSPINMLYF (Non-cyclic GFR-binding peptide) [SEQ ID NO: 64] |  |  | 37 | 23 | 23
AVPKASSAPTKLEPISILYL (Non-cyclic GFR-binding peptide) [SEQ ID NO: 70] |  |  | 67 | 21 | 21
KIPKASSVPAQLEPLPIVYY (Non-cyclic GFR-binding peptide) [SEQ ID NO: 229] | 31 | 23 |  |  | 
ASAAPSSVPQALEPLTILYY (Non-cyclic GFR-binding peptide) [SEQ ID NO: 77] |  |  | 55 | 15 | 15
NDEGLESVPTEEEPLTILYY (Non-cyclic GFR-binding peptide) [SEQ ID NO: 79] |  |  | 58 | 17 | 17
KASKASSVPQKLEPLPIVYY (Non-cyclic GFR-binding peptide) [SEQ ID NO: 85] |  |  | 22 | 10 | 10
